Results as given in patent US5053408A, “Hexitol derivatives having vasodilative activity” (Kyowa Hakko Kogyo Co., Ltd., priority 1989, dated 1991).
Where a name gives a salt, the structure may show the parent alone. Read-outs that look alike come from different tables or passages of the source.

Columns and labels:
[1] = system: coronary vasospasm model (lysine-vasopressin); assay: Effects on coronary vasospasm model (lysine-vasopressin test), inhibition of ST-segment elevation; assay type: in vivo, male Wistar rats; conditions: Rattus norvegicus
male dd-mice = assay: Acute toxicity; conditions: mouse, in vivo, 10080 min; for MLD i.p.: ip; for MLD p.o.: po
Experimental: The compounds were orally administered and intraperitoneally administered to male dd-mice weighing 20 to 25 g. […] was determined by observing the mortality for seven days after the administration.

[2] = po, 30 min before anesthetization, lysine-vasopressin 0.3 I.U./kg iv, MED = minimum dose with depression rate of 20% or higher, read-out: Coronary vasoconstriction model MED p.o.
[3] = ip, 20 min before anesthetization, lysine-vasopressin 0.3 I.U./kg iv, MED = minimum dose with depression rate of 20% or higher, read-out: Coronary vasoconstriction model MED i.p.

Compound	minimal effective dose [1, 2] [mg/kg]	MLD i.p. (male dd-mice) [mg/kg]	MLD p.o. (male dd-mice) [mg/kg]	minimal effective dose [1, 3] [mg/kg]	minimal effective dose ([1]; ip, read-out: Coronary vasoconstriction model MED i.p.) [mg/kg]	minimal effective dose ([1]; po, read-out: Coronary vasoconstriction model MED p.o.) [mg/kg]
O=C(c1ccco1)N1CCN([C@H]2CO[C@H]3[C@@H]2OC[C@@H]3O[N+](=O)[O-])CC1 [Compound 83, 5-Deoxy-5-[4-(furan-2-yl)carbonylpiperazin-1-yl]-1.4;3.6-dianhydro-L-iditol2-nitrate hydrochloride]	< 30	> 100	> 300			
O=[N+]([O-])O[C@H]1CO[C@H]2[C@@H]1OC[C@@H]2N1CCN(CCCSc2ccccc2)CC1 [Compound 1, 5-Deoxy-5-[4-(3-phenylthiopropyl)piperazin-1-yl]-1.4;3.6-dianhydro-L-iditol2-nitrate hydrochloride]	< 30	> 100	> 150	< 25		
O=C(c1ccccc1)N1CCN([C@H]2CO[C@H]3[C@@H]2OC[C@@H]3O[N+](=O)[O-])CC1 [Compound 84, 5-(4-Benzoylpiperazin-1-yl)-5-deoxy-1.4;3.6-dianhydro-L-iditol 2-nitrate hydrochloride]		> 100	> 300	< 25		
O=C(c1ccoc1)N1CCN([C@H]2CO[C@H]3[C@@H]2OC[C@@H]3O[N+](=O)[O-])CC1 [Compound 112, 5-Deoxy-5-[4-(furan-3-yl)carbonylpiperazin-1-yl]-1.4;3.6-dianhydro-L-iditol2-nitrate hydrochloride]	< 30	> 100	> 300			
O=[N+]([O-])O[C@H]1CO[C@H]2[C@@H]1OC[C@@H]2N1CCN(c2nc3ccccc3[nH]2)CC1 [Compound 76, 5-[4-(Benzimidazol-2-yl)piperazin-1-yl]-5-deoxy-1.4;3.6-dianhydro-L-iditol 2-nitrate hydrochloride]	< 30	> 100	> 300			
O=[N+]([O-])O[C@@H]1CO[C@H]2[C@@H]1OC[C@@H]2N1CCN(CCCSc2ccccc2)CC1 [Compound 96, 2-Deoxy-2-[4-(3-phenylthiopropyl)piperazin-1-yl]-1.4;3.6-dianhydro-D-glucitol 5-nitrate hydrochloride]		> 100	> 300	< 25		
O[C@H]1CO[C@H]2[C@@H]1OC[C@@H]2N1CCN(CCCOc2ccccc2)CC1 [Compound 102, 5-Deoxy-5-[4-(3-phenoxypropyl)piperazin-1-yl]-1.4;3.6-dianhydro-L-iditol hydrochloride]	< 30	> 100	> 300	< 25		
O=C(c1cccs1)N1CCN([C@H]2CO[C@H]3[C@@H]2OC[C@@H]3O[N+](=O)[O-])CC1 [Compound 111, 5-Deoxy-5-[4-(thiophen-2-yl)carbonylpiperazin-1-yl]-1.4;3.6-dianhydro-L-iditol 2-nitrate hydrochloride]	< 30	> 100	> 300			
O=C(NCCO[N+](=O)[O-])c1cccnc1 [Nicorandil, reference compound]				< 30		
O=C(c1ccc(Cl)nc1)N1CCN([C@H]2CO[C@H]3[C@@H]2OC[C@@H]3O[N+](=O)[O-])CC1 [Compound 89, 5-[4-(6-Chloropyridin-3-yl)carbonylpiperazin-1-yl]-5-deoxy-1.4;3.6-dianhydro-L-iditol 2-nitrate hydrochloride]	< 30	> 100	> 300			
COc1ccc(C(=O)N2CCN([C@H]3CO[C@H]4[C@@H]3OC[C@@H]4O[N+](=O)[O-])CC2)c(OC)c1OC [Compound 87, 5-Deoxy-5-[4-(2,3,4-trimethoxybenzoyl)piperazin-1-yl]-1.4;3.6-dianhydro-L-iditol 2-nitratehydrochloride]	< 30	> 100	> 300			
O=C(c1cccnc1)N1CCN([C@H]2CO[C@H]3[C@@H]2OC[C@@H]3O[N+](=O)[O-])CC1 [Compound 80]	< 30	> 100	> 300	< 25		
O=[N+]([O-])O[C@H]1CO[C@H]2[C@@H]1OC[C@@H]2N1CCN(CCCn2cc3ccccc3n2)CC1 [Compound 31, 5-Deoxy-5-[4-[3-(indazol-2-yl)propyl]piperazin-1-yl]-1.4; 3.6-dianhydro-L-iditol 2-nitrate hydrochloride]		> 100	> 300	< 25		
COc1cc2nc(N3CCN([C@H]4CO[C@H]5[C@@H]4OC[C@@H]5O[N+](=O)[O-])CC3)nc(N)c2cc1OC [Compound 78, 5-[4-(4-Amino-6,7-dimethoxyquinazolin-2-yl)piperazin-1-yl]-5-deoxy-1.4;3.6-dianhydro-L-iditol 2-nitrate hydrochloride]	< 30	> 100	> 300			
O=[N+]([O-])O[C@H]1CO[C@H]2[C@@H]1OC[C@@H]2N1CCN(CCCn2cnc3ccccc32)CC1 [Compound 22, 5-[4-[3-(Benzimidazol-1-yl)propyl]piperazin-1-yl]-5-deoxy-1.4;3.6-dianhydro-L-iditol 2-nitrate hydrochloride]	< 30	> 100	> 300	< 25		
O=C(c1ccc(O)nc1)N1CCN([C@H]2CO[C@H]3[C@@H]2OC[C@@H]3O[N+](=O)[O-])CC1 [Compound 114, 5-Deoxy-5-[4-(6-hydroxypyridin-3-yl)carbonylpiperazin-1-yl]-1.4;3.6-dianhydro-L-iditol 2-nitrate hydrochloride]	< 30	> 100	> 300			
O=C(c1ccccn1)N1CCN([C@H]2CO[C@H]3[C@@H]2OC[C@@H]3O[N+](=O)[O-])CC1 [Compound 81, 5-Deoxy-5-[4-(pyridin-2-yl)carbonylpiperazin-1-yl]-1.4;3.6-dianhydro-L-iditol 2-nitrate hydrochloride]	< 30	> 100	> 300			
O=[N+]([O-])O[C@H]1CO[C@H]2[C@@H]1OC[C@@H]2N1CCN(c2nc3ccccc3s2)CC1 [Compound 58, 5-[4-(Benzothiazol-2-yl)piperazin-1-yl]-5-deoxy-1.4;3.6-dianhydro-L-iditol 2-nitrate hydrochloride]		> 100	> 300	< 25		
O=C(c1cccnc1)N1CCN([C@H]2CO[C@H]3[C@@H]2OC[C@@H]3O)CC1 [Compound 117, 5-Deoxy-5-[4-(pyridin-3-yl)carbonylpiperazin-1-yl]-1.4;3.6-dianhydro-L-iditol]					< 25	< 30
O=C(O)Cc1ccc(SCCCN2CCN([C@H]3CO[C@H]4[C@@H]3OC[C@@H]4O[N+](=O)[O-])CC2)cc1 [Compound 16, 5-[4-[3-(4-Carboxymethylphenylthio)propyl]piperazin-1-yl]-5-deoxy-1.4;3.6-dianhydro-L-iditol 2-nitrate]	< 30	> 100	> 300			
O=[N+]([O-])O[C@H]1CO[C@H]2[C@@H]1OC[C@@H]2N1CCN(CCCn2ccnc2)CC1 [Compound 21, 5-Deoxy-5-[4-[3-(imidazol-1-yl)propyl]piperazin-1-yl]-1.4;3.6-dianhydro-L-iditol 2-nitrate hydrochloride]	< 30	> 100	> 300			
Cc1ccc(C(=O)N2CCN([C@H]3CO[C@H]4[C@@H]3OC[C@@H]4O[N+](=O)[O-])CC2)cn1 [Compound 93, 5-Deoxy-5-[4-(6-methylpyridin-3-yl)carbonylpiperazin-1-yl]-1.4;3.6-dianhydro-L-iditol 2-nitrate hydrochloride]	< 30	> 100	> 300			
Cc1cc2ncn(CCCN3CCN([C@H]4CO[C@H]5[C@@H]4OC[C@@H]5O[N+](=O)[O-])CC3)c2cc1C [Compound 23, 5-Deoxy-5-[4-[3-(5,6-dimethylbenzimidazol-1-yl)propyl]-piperazin-1-yl]-1.4;3.6-dianhydro-L-iditol 2-nitrate hydrochloride]	< 30	> 100	> 300			
O=[N+]([O-])O[C@H]1CO[C@H]2[C@@H]1OC[C@@H]2N1CCN(CCCSc2ccncc2)CC1 [Compound 12, 5-Deoxy-5-[4-[3-(pyridin-4-ylthio)propyl]piperazin-1-yl]-1.4;3.6-dianhydro-L-iditol 2-nitrate hydrochloride]	< 30	> 100	> 300			
O=[N+]([O-])O[C@H]1CO[C@H]2[C@@H]1OC[C@@H]2N1CCN(c2nnnn2-c2ccccc2)CC1 [Compound 60, 5-Deoxy-5-[4-(1-phenyl-1H-tetrazol-5-yl)piperazin-1-yl-]-1.4;3.6-dianhydro-L-iditol 2-nitrate hydrochloride]		> 100	> 300	< 25		
O=C(c1cccnc1)N1CC[N+]([O-])([C@H]2CO[C@H]3[C@@H]2OC[C@@H]3O[N+](=O)[O-])CC1 [Compound 113, 5-Deoxy-5-[4-(pyridin-3-yl)carbonylpiperazin N^1-oxid-1-yl]-1.4;3.6-dianhydro-L-iditol 2-nitrate hydrochloride]		> 100	> 300	< 25		
